{"source": "paper PMC7969873", "about": "(Cell Reports, 2021)", "key": {"[1]": {"system": "CHK1 phosphorylation (pCHK1)", "test": "CHK1 phosphorylation in Vero E6 cells (western blot)", "type": "cell-based", "method": "Cells were lysed in 50 mM Tris pH 7.4, 1% NP-40, 0.25% sodium deoxycholate, 1 mM EDTA, 150 mM NaCl, 1 mM Na3VO4, […], 1mM PMSF, 2 mg ml^-1 aprotinin, 2 mg ml^-1 leupeptin and 0.7 mg ml^-1 pepstatin or Laemmli Sample Buffer (Bio Rad, Hercules, CA). Cell lysates were resolved by SDS-PAGE using 10% gradient gels and transferred to a 0.2 μm PVDF membrane. Subsequently, the membranes were blocked with 5% skim milk and 0.1% Tween-20 in 1x TBST (0.1% Tween-20) at room temperature for 1 hour. The membranes were then probed with respective monoclonal antibodies and detected by Thermo Scientific SuperSignal West Femto Maximum Sensitivity Substrate."}, "[2]": {"test": "HeLa-ACE2 uninfected host cell cytotoxicity counter screen", "type": "cell-based", "conditions": "human, uninfected HeLa-ACE2 cells; read-out: median cytotoxic concentration (CC50)", "method": "Compounds were acoustically transferred into 1,536-well μclear plates (Greiner Part. No. 789091). HeLa-ACE2 cells were maintained as described for the infection assay and seeded in the assay-ready plates at 400 cells/well in DMEM with 2% FBS and plates were incubated for 24 hours at 37°C 5% CO2. To assess cell viability, the Image-iT DEAD green reagent (Thermo Fisher) was used according to manufacturer instructions. Cells were fixed with 4% paraformaldehyde, and counterstained with DAPI."}, "MERS-CoV": {"system": "MERS-CoV", "test": "microbe, parasite or virus in culture", "type": "cell-based", "conditions": "Middle East respiratory syndrome-related coronavirus, Calu-3, read-out: IC50, MERS-CoV viral titer"}, "SARS-CoV-2 [3]": {"system": "SARS-CoV-2", "test": "microbe, parasite or virus in culture", "type": "cell-based", "conditions": "for IC50: Severe acute respiratory syndrome coronavirus 2, A549-ACE2, 24 h, 24 h, read-out: IC50, SARS-CoV-2 immunostaining signal"}, "SARS-CoV-2 [4]": {"system": "SARS-CoV-2", "type": "cell-based", "conditions": "hiPSC-CMs, 250 nM"}, "SARS-CoV-2 [5]": {"system": "SARS-CoV-2", "test": "SARS-CoV-2 replication kinetics in Vero E6 cells (RT-qPCR genome copies, western blot)", "type": "cell-based", "conditions": "for viral genome and protein production: from 8 h onward"}, "SARS-CoV-2 [6]": {"system": "SARS-CoV-2", "test": "microbe, parasite or virus in culture", "type": "cell-based", "conditions": "Severe acute respiratory syndrome coronavirus 2, Calu-3 cells, read-out: IC50, SARS-CoV-2 viral titer"}, "human primary lung cells": {"system": "human primary lung cells", "test": "Toxicity in human primary lung cells", "type": "cell-based"}, "SARS-CoV-2 [7]": {"system": "SARS-CoV-2"}, "SARS-CoV-2 [8]": {"system": "SARS-CoV-2", "test": "SARS-CoV-2 infection of HEK293-ACE2 cells (IFA)", "type": "cell-based", "conditions": "100 nM, 48 hpi"}, "[9]": {"design": "method as in earlier work", "conditions": "cancer setting, phases 1 and 2, ref Konstantinopoulos et al., 2020, Yap et al., Thomas et al., 2018; cited from earlier work"}, "SARS-CoV-2 [10]": {"system": "SARS-CoV-2", "test": "microbe, parasite or virus in culture", "type": "cell-based", "conditions": "Vero E6 cells; IFA; read-out: IC50, inhibition of SARS-CoV-2 infectivity"}, "hiPSC-CMs": {"system": "hiPSC-CMs", "test": "Cardiomyocyte beating / in vitro cardiotoxicity in hiPSC-CMs", "type": "cell-based, human", "conditions": "hiPSC-CMs; 250 nM", "method": "Thus, we used the human-induced pluripotent stem-cell-derived cardiomyocyte (hiPSC-CM) system for antiviral drug testing against SARS-CoV-2. […] Thus, this cardiomyocyte system is useful for antiviral drug testing against SARS-CoV-2. […] The inhibition of virus production by berzosertib was evaluated by quantifying the infectious virus (TCID50) in the supernatant at various time points (Figure 2B). […] Infection of cardiomyocytes with SARS-CoV-2 was confirmed by specific staining of cardiac troponin T (cTnT) and viral spike proteins (Figure 2E). Untreated SARS-CoV-2-infected cells had infection-mediated cell injury with disrupted troponin T fibers."}, "SARS-CoV-2 [11]": {"system": "SARS-CoV-2", "type": "cell-based", "conditions": "250 nM, Vero E6 cells, 48 h"}, "Calu-3 cells": {"system": "Calu-3 cells", "test": "Cell viability assay (MTT) in Calu-3 cells", "type": "cell-based, human", "method": "Calu-3 and A549-ACE2 were seeded in 96-well plates with 3.5 × 10^5 cells/ml, 100 μL per well, for 24 h. The compounds to be tested or pure DMSO as […] control were serially diluted in CoV infection medium (DMEM, supplemented with 1 % L-glu, 1 % P/S and 2 % FBS) to obtain 5-fold of the desired final concentrations. The growth medium was removed from the cells and replaced with 80 μl/well of fresh infection medium. Subsequently, 20 μL of the diluted compounds were added in quadruplicates for each concentration (i.e., 5-fold dilution to reach the final concentrations). Cells were incubated for 48 h at 37°C (5% CO2, 96 % rH). At 48 h post treatment, cell viability was measured on a Tecan Safire 2 plate reader using the CellTiter 96® Non-Radioactive Cell Proliferation Assay (MTT) (Promega) according to manufacturer’s instructions."}, "SARS-CoV-1": {"system": "SARS-CoV-1", "test": "microbe, parasite or virus in culture", "type": "cell-based", "conditions": "Severe acute respiratory syndrome coronavirus, Calu-3, read-out: IC50, SARS-CoV-1 viral titer"}, "ATR": {"system": "ATR", "design": "method as in vendor Selleckchem", "conditions": "HT29 cells; ref vendor Selleckchem; read-out: IC50, ATR inhibition; cited from earlier work"}, "SARS-CoV-2 [12]": {"system": "SARS-CoV-2", "test": "microbe, parasite or virus in culture", "type": "cell-based"}, "IL6": {"system": "IL6", "test": "IL6 gene expression in SARS-CoV-2-infected Vero E6 cells (RT-qPCR)", "type": "cell-based"}}, "note": "Like-named read-outs stand apart in the source and are kept apart here.", "data": [{"smiles": "CNCc1ccc(-c2cc(-c3nc(-c4ccc(S(=O)(=O)C(C)C)cc4)cnc3N)on2)cc1", "note": "[Berzosertib]", "values": [{"measurement": "phosphorylation of CHK1", "setting": "[1]", "result": "reduced"}, {"measurement": "CC50 at 24 h", "setting": "[2]", "result": 3890, "unit": "nM"}, {"measurement": "IC50", "setting": "MERS-CoV", "result": 290, "unit": "nM"}, {"measurement": "combination effect (isobologram, Compusyn)", "setting": "SARS-CoV-2 [3]", "result": "synergistic"}, {"measurement": "selectivity index (SI)", "setting": "SARS-CoV-2 [3]; A549-ACE2 cells", "result": 204}, {"measurement": "IC50", "setting": "SARS-CoV-2 [3]", "result": 240, "unit": "nM"}, {"measurement": "IC50", "setting": "SARS-CoV-2 [3]; A549-ACE2 cells, […]", "result": "220 ± 30", "unit": "nM"}, {"measurement": "virus production (infectious virus, TCID50, in supernatant)", "setting": "SARS-CoV-2 [4]", "result": "significantly reduced"}, {"measurement": "apoptotic cell death associated with viral infection", "setting": "SARS-CoV-2 [4]; cleaved caspase-3", "result": "significantly reduced"}, {"measurement": "number of viral genome copies at 2 hpi (entry)", "setting": "SARS-CoV-2 [5]; 2 hpi", "result": "not affected"}, {"measurement": "viral genome and protein production", "setting": "SARS-CoV-2 [5]", "result": "inhibited"}, {"measurement": "viral genome and protein production", "setting": "SARS-CoV-2 [5]; listed as berzosertib", "result": "significantly reduced"}, {"measurement": "IC50", "setting": "SARS-CoV-2 [6]", "result": 480, "unit": "nM"}, {"measurement": "concentration with detectable toxicity", "setting": "human primary lung cells", "result": "> 50", "unit": "µM"}, {"measurement": "median effective dose (ED50), percentage of infected cells", "setting": "SARS-CoV-2 [7]; HeLa-ACE2 cells", "result": 200, "unit": "nM"}, {"measurement": "total cells per well (cytotoxic effect at active concentrations)", "setting": "SARS-CoV-2 [7]; SARS-CoV-2-infected HeLa-ACE2 cells", "result": "did not change"}, {"measurement": "inhibition of virus replication", "setting": "SARS-CoV-2 [8]", "result": "complete inhibition"}, {"measurement": "tolerability in oncology clinical studies", "setting": "[9]", "result": "well tolerated"}, {"measurement": "IC50", "setting": "SARS-CoV-2 [10]", "result": "< 25", "unit": "nM"}, {"measurement": "in vitro cardiotoxicity", "setting": "hiPSC-CMs", "result": "No in vitro cardiotoxicity"}, {"measurement": "antiviral activity (prevention of viral CPE) in primary screen", "setting": "SARS-CoV-2 [11]", "result": "antiviral activity"}, {"measurement": "concentration with detectable toxicity", "setting": "Calu-3 cells", "result": "> 50", "unit": "µM"}, {"measurement": "IC50", "setting": "SARS-CoV-1", "result": 320, "unit": "nM"}, {"measurement": "IC50", "setting": "ATR", "result": 19, "unit": "nM"}, {"measurement": "inhibition of SARS-CoV-2", "setting": "SARS-CoV-2 [12]", "result": "effective"}, {"measurement": "IC50", "setting": "SARS-CoV-2 [12]; Severe acute respiratory syndrome coronavirus 2, human primary lung cells", "result": 40, "unit": "nM"}, {"measurement": "viral-mediated induction of pro-inflammatory gene IL6", "setting": "IL6", "result": "reduced"}]}]}
